The subject of data set [1] is Trypanosoma cruzi. The data set can be described thus: Assay 6 Trypanosoma cruzi intracellular assay (infected H9C2 cells). It counts as cell-based. As to conditions: H9c2, in Rattus norvegicus, 72 h, infected H9C2 rat cardiomyocytes, read-out: pEC50 value against Trypanosoma cruzi (converted). On the procedure:
Compounds were dispensed into black 384-well assay plates (Greiner) by acoustic dispensing (LabCyte ECHO). For potency determinations, eleven-point, one in three dilution curves were generated, with a top concentration of 50 μM. H9C2 rat cardiomyocytes cells were dispensed in T225 tissue culture flasks and after 4 hours they were infected during 18 hours with T. cruzi trypomastigotes in the same T225 tissue culture flasks at a multiplicity of infection of 1. Next, any remaining free trypomastigotes were washed away with PBS and the infected H9C2 cells were harvested by trypsinisation. The infected H9C2 cells were then plated into 384-well plates containing the compounds to be tested, at 2500 cells per well in DMEM media with 2% FBS, 1% Penicillin/Streptomocin, 2 mM L-Glutamine, 1 mM Na Pyruvate and 25 mM HEPES. After 72 h incubation at 37° C. in presence of 5% CO2, the plates were fixed and stained with 4% formaldehyde and 2 μM Draq5 for 3 hours at room temperature. The plates were imaged on a Perkin Elmer Opera high-content imaging system using a 20× air objective. Images were analysed using the Acapella building blocks system (Perkin Elmer). The image analysis algorithm first identified the H9C2 nuclei followed by demarcation of the cytoplasm and identification of intracellular amastigotes. This algorithm reported mean number of parasites per H9C2 cell, the percentage of infected H9C2 cells and the total number of H9C2 cells.

The test system of data set [2] is Trypanosoma cruzi. The experiment in a line: Assay 2 Trypanosoma cruzi intracellular assay (infected Vero cells). It counts as cell-based. Conditions: 72 h, read-out: pEC50 value against Trypanosoma cruzi (converted). The method, then:
Compounds were dispensed into black 384-well assay plates (Corning) by acoustic dispensing (LabCyte ECHO). For potency determinations, ten-point one in three dilution curves were generated, with a top concentration of 50 μM. Vero cells were infected overnight with T. cruzi trypomastigotes in T225 tissue culture flasks at a multiplicity of infection of 5. Next, any remaining free trypomastigotes were washed away with serum free MEM media and the infected Vero cells were harvested by trypsinisation. The infected Vero cells were then plated into 384-well plates containing the compounds to be tested, at 4000 cells per well in MEM media with 1% FCS. After 72 h incubation at 37° C. in presence of 5% CO2, the plates were fixed with 4% formaldehyde for 20 minutes at room temperature and stained with 5 μg/ml Hoechst 33342. The plates were imaged on a Perkin Elmer Operetta high-content imaging system using a 20× objective. Images were analysed using the Columbus system (Perkin Elmer). The image analysis algorithm first identified the Vero nuclei followed by demarcation of the cytoplasm and identification of intracellular amastigotes. This algorithm reported mean number of parasites per Vero cell and total number of Vero cells.

Data set [3] in a line: Assay 4 solubility assay, ChemiLuminescent Nitrogen Detection (CLND). As to conditions: phosphate buffered saline, pH 7.4, aqueous buffer, kinetic from dmso stock, pH 7.4 PBS, from 10 mM DMSO stock, 1 h at room temperature. It counts as physicochemical. The method, then:
A 10 mM DMSO stock solution of the compound was prepared. Solvents and Buffers Organic solvents of HPLC grade were used. Ultra pure water (Milli-Q grade) was used. Buffers were prepared with ultra pure water and filtered using 0.45μ cameo filters. Aqueous Buffer Solution: Phosphate Buffer Saline (PBS) @ pH 7.4 was prepared from Sigma dry powder packs, P-3813. Each one was diluted to 1 liter with deionised water. The pH was checked before the solution was used II. Procedures. • a) DMSO concentration was measured. DMSO blanks and ondansetron and caffeine standards were added to the plate (column 12, A, B, C, & D for the blanks and E, F, G, & H for the standards). Plates were covered with foil. When the UV and CLND detectors baselines appeared to be stable, the CLND was zeroed. • b) Once DMSO concentration measurements were complete, a filtration plate was prepared from each parent plate by diluting 5 μl of the 10 mM DMSO stock solution to […] with pH7.4 PBS. • c) After the plates were prepared, they were covered with a plate lid and left to incubate for 1 h at room temperature. • d) Sample was filtered using MILLIPORE MultiScreen Solubility (MSSLBPC10) Filtration Plates, to NUNC V well plates. The filter plate was removed and the NUNC plate was sealed with a power seal plate seal. • e) HPLC/CLND instruments were set up and left to equilibrate. Mobile phases (MeOH:H2O 1:1, flow rate: 0.2 ml/min, sensitivity z10, Gain High). The samples were run. • f) The assay curve fit was done by linear regression and solubility values were reported in μM.

Data set [4] can be described thus: Assay 1 intramacrophage Leishmania donovani assay, THP-1 cell count (cytotoxicity readout). Conditions: human, minimum threshold 4.3, read-out: cytotoxicity against THP-1 cells, pEC50 value (converted). It counts as cell-based. On the procedure:
(§1) The intramacrophage Leishmania assay was performed using a modified version of the method described in De Rycker et al. (Antimicrob Agents Chemother. 2013 July; 57(7):2913-22. Comparison of a high-throughput high-content intracellular Leishmania donovani assay with an axenic amastigote assay. De Rycker M, Hallyburton I, Thomas J, Campbell L, Wyllie S, Joshi D, Cameron S, Gilbert I H, Wyatt P G, Frearson J A, Fairlamb A H, Gray D W.). Procedure: 350 nl of compound was pre-dispensed into 384 well sterile intermediary plates. For single point screening, amphotericin B was added to all wells of column 24 as a positive control (final concentration 2 μM) and DMSO to column 23. For potency determinations, ten-point, one in three dilution curves were created with the highest concentration being 50 μM and on each plate a control curve of amphotericin B was included. Controls were as follows: columns 11 and 12: DMSO, columns 23 and 24: amphotericin B (final concentration 2 μM). To the intermediary plates, 35 μl of THP-1 media was added and plates were shaken for >5 min to ensure complete mixing. THP-1 cells (8,000 per well, 50 μl) were plated into black clear-bottom 384 well plates (Corning) in presence of 20 nM PMA. After 20 min at RT, the plates were incubated at 37° C. under 5% CO2 in a humidified incubator for 75 h. The cells were then washed with […] sterile phosphate buffered saline (PBS) supplemented with 1 mM CaCl2, 0.5 mM MgCl2, 0.1% (w/v) bovine serum albumin (PBS-A) and amastigotes were added to all wells at a multiplicity of infection of 5 (40,000 amastigotes per well). After 40 min at RT, plates were returned to the incubator. Amastigotes were incubated in the presence of THP-1 macrophages for 16 h. Any remaining extracellular amastigotes were subsequently removed with an overflow wash of 1 mL PBS-A per well (wash buffer is being aspirated from the top of the well as it is being dispensed) followed by addition of 25 μl of the compound pre-dilutions using a Fluidx Ipette-pro pipetting station. The final dilution of each compound was 200-fold. Plates were incubated for 96 h and then washed (250 μl PBS-A) and fixed (4% (v/v) formaldehyde-PBS, 30 min, RT). After fixation, the wells were washed with 250 μl PBS, stained (10 μg/mL DAPI, 0.4 μg mL-1 HCS Cellmask Deep Red in PBS+0.1% (v/v) Triton X-100, 30 min, RT) and washed with 250 μl PBS. Finally, PBS+0.05% (v/v) thimerosal was added to the wells, the plates were sealed and imaged on a high-content microscope (GE IN Cell 2000) using a 10× objective. Image analysis was carried out with GE IN Cell Analyzer 1000 Workstation using the “Multi Target Analysis” module. Settings for segmentation were as follows: nuclei: minimum area: 142.384 μm2, sensitivity: 81, method: top-hat; cells: characteristic area: 2500 μm2, sensitivity: 60, method: multiscale top-hat; organelles (amastigotes): granule size 1-3, 3 scales, sensitivity: 90, detection in entire cell. For each well, i) THP-1 cell count (cytotoxicity readout) and ii) average number of amastigotes per cell (potency readout) were calculated, both in terms of pEC50 values.

The subject of a further data set is Leishmania donovani. The experiment in a line: Assay 1 intramacrophage Leishmania donovani assay (potency readout). It counts as cell-based. Conditions: amastigotes in PMA-treated THP-1 macrophages, 96 h, average number of amastigotes per cell, minimum threshold 4.3, read-out: pEC50 value against Leishmania donovani (converted). The method, then:
as §1

Values after ≈ are worked out from the molar mass of the structure shown. Some results are limits rather than exact numbers.

Consider `CC1CN(c2cnc3nc(-c4cc(NC(=O)N5CCCC5)ccc4F)cn3n2)CCO1` (racemic) [Example 5, (+,−)-N-(4-fluoro-3-(2-(2-methylmorpholino)imidazo[1,2-b][1,2,4]triazin-6-yl)phenyl)pyrrolidine-1-carboxamide], for which the EC50 with Trypanosoma cruzi [1] is 5.01 to 631 nM; with Trypanosoma cruzi [2] it was 20 to 251 nM. In data set [3], this molecule returned a solubility at 1 h of 10 to 83 µM (≈ 4.25 to 35.3 µg/mL).
On to `C[C@@H]1CN(c2cnc3nc(-c4cc(NC(=O)N5CCCC5)ccc4F)cn3n2)C[C@H](C)O1` (single isomer, unassigned) [Example 6], for which the EC50 was 5.01 to 631 nM in the data set on Trypanosoma cruzi [1] and 20 to 251 nM in the data set with Trypanosoma cruzi [2]. The solubility at 1 h in data set [3] is 10 to 83 µM (≈ 4.39 to 36.5 µg/mL).
Regarding `O=C(Nc1ccc(F)c(-c2cn3nc(-c4ccccc4)cnc3n2)c1)N1CCCC1` [Example 2, N-(4-fluoro-3-(2-phenylimidazo[1,2-b][1,2,4]triazin-6-yl)phenyl)pyrrolidine-1-carboxamide], the EC50 with Trypanosoma cruzi [1] is 5.01 to 631 nM; with Trypanosoma cruzi [2], 20 to 251 nM. The molecule further gave a solubility at 1 h in data set [3] of 10 to 83 µM (≈ 4.02 to 33.4 µg/mL).
Regarding `O=C(Nc1ccc(F)c(-c2cn3nccnc3n2)c1)N1CCCC1` [Example 8, N-(4-fluoro-3-(imidazo[1,2-b][1,2,4]triazin-6-yl)phenyl)pyrrolidine-1-carboxamide], in the data set on Trypanosoma cruzi [2], the EC50 is 20 to 251 nM.
Turning to `O=C(Nc1ccc(F)c(-c2cn3nc(-c4ccc(CN5CCOCC5)cc4)cnc3n2)c1)N1CCCC1` [Example 18, N-(4-fluoro-3-(2-(4-(morpholinomethyl)phenyl)imidazo[1,2-b] [1,2,4]triazin-6-yl)phenyl)pyrrolidine-1-carboxamide], the EC50 with Trypanosoma cruzi [1] is 5.01 to 631 nM. Further, the EC50 at 96 h in data set [4] was 3980 to 15800 nM. Besides, in data set [3], the solubility at 1 h was in the range of 1 to 6 µM (≈ 0.502 to 3.01 µg/mL).
Turning to `O=C(Nc1ccc(F)c(-c2cn3nc(-c4cccc(CN5CCOCC5)c4)cnc3n2)c1)N1CCCC1` [Example 19, N-(4-fluoro-3-(2-(3-(morpholinomethyl)phenyl)imidazo[1,2-b] [1,2,4]triazin-6-yl)phenyl)pyrrolidine-1-carboxamide], the EC50 in the data set with Trypanosoma cruzi [1] is 5.01 to 631 nM. Besides, the EC50 at 96 h in data set [4] is 3980 to 15800 nM. In data set [3], this molecule came in with a solubility at 1 h of 1 to 6 µM (≈ 0.502 to 3.01 µg/mL).
`COc1ccc(CNc2cnc3nc(-c4cc(NC(=O)N5CCCC5)ccc4F)cn3n2)cc1` [Example 50, N-(4-fluoro-3-(2-((4-methoxybenzyl)amino)imidazo[1,2-b][1,2,4]triazin-6-yl)phenyl) pyrrolidine-1-carboxamide]: the EC50 with Trypanosoma cruzi [1] was 5.01 to 631 nM. In data set [4], the EC50 at 96 h was 3980 to 15800 nM.
As for `O=C(Nc1ccc(F)c(-c2cn3nc(-c4ccc(O)cc4)cnc3n2)c1)N1CCCC1` [Example 51, N-(4-fluoro-3-(2-(4-hydroxyphenyl)imidazo [1,2-b][1,2,4]triazin-6-yl)phenyl)pyrrolidine-1-carboxamide], in the data set with Trypanosoma cruzi [1], the EC50 was 5.01 to 631 nM. The EC50 at 96 h in data set [4] is 3980 to 15800 nM.
On to `CCOC(=O)Nc1ccc(F)c(-c2cn3nc(N4CCOCC4)cnc3n2)c1` [Example 52, ethyl (4-fluoro-3-(2-morpholinoimidazo [1,2-b][1,2,4]triazin-6-yl)phenyl)carbamate], for which the values for the EC50 with Leishmania donovani and in the data set with Trypanosoma cruzi [1] were more than 50100 nM and 5.01 to 631 nM, respectively.
Regarding `COC(=O)Nc1cnc2nc(-c3cc(NC(=O)N4CCCC4)ccc3F)cn2n1` [Example 55, methyl (6-(2-fluoro-5-(pyrrolidine-1-carboxamido)phenyl)imidazo[1,2-b][1,2,4]triazin-2-yl)carbamate], in the data set with Trypanosoma cruzi [1], the EC50 was 5.01 to 631 nM. The molecule also registered a solubility at 1 h in data set [3] of 10 to 83 µM (≈ 3.99 to 33.1 µg/mL).
With `O=C(Nc1ccc(F)c(-c2cn3nc(N4CCNCC4)cnc3n2)c1)N1CCCC1` [Example 56, N-(4-fluoro-3-(2-(piperazin-1-yl)imidazo [1,2-b][1,2,4]triazin-6-yl)phenyl)pyrrolidine-1-carboxamide], in the data set with Trypanosoma cruzi [1], the EC50 was 5.01 to 631 nM. The molecule also came in with a solubility at 1 h in data set [3] of 100 to 416 µM (≈ 41 to 171 µg/mL).
Turning to `CN1CCN(c2cnc3nc(-c4cc(NC(=O)N5CCCC5)ccc4F)cn3n2)CC1` [Example 57, N-(4-fluoro-3-(2-(4-methylpiperazin-1-yl)imidazo[1,2-b][1,2,4]triazin-6-yl)phenyl) pyrrolidine-1-carboxamide], the EC50 in the data set with Trypanosoma cruzi [1] is 5.01 to 631 nM. In data set [3], this molecule displayed a solubility at 1 h of 100 to 416 µM (≈ 42.4 to 177 µg/mL).
For the molecule `O=C(Nc1cnc2nc(-c3cc(NC(=O)N4CCCC4)ccc3F)cn2n1)C1CC1` [Example 58, N-(3-(2-(cyclopropane-carboxamido)imidazo [1,2-b][1,2,4]triazin-6-yl)-4-fluorophenyl) pyrrolidine-1-carboxamide], the EC50 with Trypanosoma cruzi [1] was 5.01 to 631 nM. Moreover, the solubility at 1 h in data set [3] fell in the range of 10 to 83 µM (≈ 4.09 to 34 µg/mL).
On to `CN1CCN(Cc2ccc(-c3cnc4nc(-c5cc(NC(=O)N6CCCC6)ccc5F)cn4n3)cc2)CC1` [Example 59, N-(4-fluoro-3-(2-(4-((4-methylpiperazin-1-yl)methyl)phenyl)imidazo [1,2-b][1,2,4]triazin-6-yl)phenyl)pyrrolidine-1-carboxamide], for which the EC50 at 96 h in data set [4] was 3980 to 15800 nM.

In general, solubility refers to how much of the substance goes into solution per volume. The low end stands for little dissolved substance, the high end for much dissolved substance.

The values above are taken from US10065965B2, “Imidazo[1,2-B][1,2,4]triazine derivatives as antiparasitic agents” (GlaxoSmithKline Intellectual Property Development Limited, priority 2015, dated 2018).
